Experimental data reported in US11478478B2, “2,3-disubstituted 1-acyl-4-amino-1,2,3,4-tetrahydroquinoline derivatives and their use as bromodomain inhibitors” (GLAXOSMITHKLINE INTELLECTUAL PROPERTY (NO.2) LIMITED, priority 2013, dated 2022).

biological target: T1, BRD4 BD2 (Homo sapiens, UniProt O60885, Y97A); assay: TR-FRET binding assay, BRD4 BD2 (BD1-mutated protein); conditions: read-out: pIC50 in the BRD4 BD2 assay (converted)
T1 construct: BRD4 (1-477) (Y97A) and (Y390A); made in house; host or cells: E. coli (pET15b vector)
Summary of the method: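 Displacement of Alexa Fluor647-labelled bromodomain ligand (at Kd) from 10 nM His-tagged BRD4 (1-477, Y97A) read by Eu-anti-His TR-FRET (665/615 ratio) in pH 7.4 HEPES buffer, 0.5% DMSO. Compound preincubated 30 min at rt, detection ≥30 min. pIC50 derived from four-parameter fit after normalisation to controls.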

| IC50 [nM] | Structure (SMILES) |
| --- | --- |
| 100 | CC(=O)N1c2ccc(C(N)=O)cc2[C@H](Nc2ccc(C#N)cn2)[C@@H](C)[C@@H]1C1CC1 [Example 400, (2S,3R,4R)-1-acetyl-4-((5-cyanopyridin-2-yl)amino)-2-cyclopropyl-3-methyl-1,2,3,4-tetrahydroquinoline-6-carboxamide] |
| 100 | CC(=O)N1c2ccc(C(N)=O)cc2[C@H](Nc2ncc(Cl)cn2)[C@@H](C)[C@@H]1C1CC1 [Example 403, (2S,3R,4R)-1-acetyl-4-((5-chloropyrimidin-2-yl)amino)-2-cyclopropyl-3-methyl-1,2,3,4-tetrahydroquinoline-6-carboxamide] |
| 100 | CCc1ccnc(N[C@H]2c3cc(C(N)=O)ccc3N(C(C)=O)[C@@H](C3CC3)[C@@H]2C)n1 [Example 407, (2S,3R,4R)-1-acetyl-2-cyclopropyl-4-((4-ethylpyrimidin-2-yl)amino)-3-methyl-1,2,3,4-tetrahydroquinoline-6-carboxamide] |
| 1000 to 100000 | CC(=O)N1c2ccc(C(N)=O)cc2[C@H](Nc2nc(C)cc(C)n2)[C@@H](C)[C@@H]1C1CC1 [Example 408, (2S,3R,4R)-1-acetyl-2-cyclopropyl-4-((4,6-dimethylpyrimidin-2-yl)amino)-3-methyl-1,2,3,4-tetrahydroquinoline-6-carboxamide] |
| 100 | CC(=O)N1c2ccc(C(N)=O)cc2[C@H](Nc2nccc(C(C)C)n2)[C@@H](C)[C@@H]1C1CC1 [Example 411, (2S,3R,4R)-1-acetyl-2-cyclopropyl-4-((4-isopropylpyrimidin-2-yl)amino)-3-methyl-1,2,3,4-tetrahydroquinoline-6-carboxamide] |
| 100 | CC(=O)N1c2ccc(C(N)=O)cc2[C@H](Nc2nccc(C3=CCOCC3)n2)[C@@H](C)[C@@H]1C1CC1 [Example 413] |
| 100 | CC(=O)N1c2ccc(C(N)=O)cc2[C@H](Nc2ncccc2C(N)=O)[C@@H](C)[C@@H]1C1CC1 [Example 418, (2S,3R,4R)-1-acetyl-4-((3-carbamoylpyridin-2-yl)amino)-2-cyclopropyl-3-methyl-1,2,3,4-tetrahydroquinoline-6-carboxamide] |
| 1000 to 100000 | Cc1ccnc(N[C@H]2c3cc(C(N)=O)ccc3N(C(=O)C(C)C)[C@@H](C3CC3)[C@@H]2C)n1 [Example 422, (2S,3R,4R)-2-cyclopropyl-1-isobutyryl-3-methyl-4-((4-methylpyrimidin-2-yl)amino)-1,2,3,4-tetrahydroquinoline-6-carboxamide] |
| 100 | CC(=O)N1c2ccc(C(=O)NCCO)cc2[C@H](Nc2ncc(F)c(C)n2)[C@@H](C)[C@@H]1C [Example 430, (2S,3R,4R)-1-acetyl-4-((5-fluoro-4-methylpyrimidin-2-yl)amino)-N-(2-hydroxyethyl)-2,3-dimethyl-1,2,3,4-tetrahydroquinoline-6-carboxamide] |
| 100 | CC(=O)N1c2ccc(C(=O)NCCO)cc2[C@H](Nc2ccc(F)c(C)n2)[C@@H](C)[C@@H]1C [Example 433, (2S,3R,4R)-1-acetyl-4-((5-fluoro-6-methylpyridin-2-yl)amino)-N-(2-hydroxyethyl)-2,3-dimethyl-1,2,3,4-tetrahydroquinoline-6-carboxamide] |
| 1000 to 100000 | CC(=O)N1c2ccc(C(=O)NCCO)cc2[C@H](Nc2ccnc(C)n2)[C@@H](C)[C@@H]1C1CC1 [Example 441, (2S,3R,4R)-1-acetyl-2-cyclopropyl-N-(2-hydroxyethyl)-3-methyl-4-((2-methylpyrimidin-4-yl)amino)-1,2,3,4-tetrahydroquinoline-6-carboxamide] |
| 100 | CC(=O)N1c2ccc(C(=O)NC3CCOCC3)cc2[C@H](Nc2ccc(F)cn2)[C@@H](C)[C@@H]1C1CC1 [Example 469, (2S,3R,4R)-1-acetyl-2-cyclopropyl-4-((5-fluoropyridin-2-yl)amino)-3-methyl-N-(tetrahydro-2H-pyran-4-yl)-1,2,3,4-tetrahydroquinoline-6-carboxamide] |
| 100 | COCCNC(=O)c1ccc2c(c1)[C@H](Nc1ccc(F)cn1)[C@@H](C)[C@H](C1CC1)N2C(C)=O [Example 471, (2S,3R,4R)-1-acetyl-2-cyclopropyl-4-((5-fluoropyridin-2-yl)amino)-N-(2-methoxyethyl)-3-methyl-1,2,3,4-tetrahydroquinoline-6-carboxamide] |
| 100 | CC(=O)N1c2ccc(C(=O)NCCO)cc2[C@H](Nc2ccc(F)cn2)[C@@H](C)[C@@H]1C [Example 479, (2S,3R,4R)-1-acetyl-4-((5-fluoropyridin-2-yl)amino)-N-(2-hydroxyethyl)-2,3-dimethyl-1,2,3,4-tetrahydroquinoline-6-carboxamide] |
| 100 | COCCCNC(=O)c1ccc2c(c1)[C@H](Nc1cccc(C)n1)[C@@H](C)[C@H](C1CC1)N2C(C)=O [Example 480, (2S,3R,4R)-1-acetyl-2-cyclopropyl-N-(3-methoxypropyl)-3-methyl-4-((6-methylpyridin-2-yl)amino)-1,2,3,4-tetrahydroquinoline-6-carboxamide] |
| 100 | CC(=O)N1c2ccc(C(=O)NC3CCOCC3)cc2[C@H](Nc2ncccn2)[C@@H](C)[C@@H]1C1CC1 [Example 484, (2S,3R,4R)-1-acetyl-2-cyclopropyl-3-methyl-4-(pyrimidin-2-ylamino)-N-(tetrahydro-2H-pyran-4-yl)-1,2,3,4-tetrahydroquinoline-6-carboxamide] |

| IC50 [nM] | Structure (SMILES) |
| --- | --- |
| 100 | CC(=O)N1c2ccc(C(=O)NC3COC3)cc2[C@H](Nc2ncccn2)[C@@H](C)[C@@H]1C1CC1 [Example 488, (2S,3R,4R)-1-acetyl-2-cyclopropyl-3-methyl-N-(oxetan-3-yl)-4-(pyrimidin-2-ylamino)-1,2,3,4-tetrahydroquinoline-6-carboxamide] |
| 100 | COCCNC(=O)c1ccc2c(c1)[C@H](Nc1ncccn1)[C@@H](C)[C@H](C1CC1)N2C(C)=O [Example 489, (2S,3R,4R)-1-acetyl-2-cyclopropyl-N-(2-methoxyethyl)-3-methyl-4-(pyrimidin-2-ylamino)-1,2,3,4-tetrahydroquinoline-6-carboxamide] |
| 100 | CC(=O)N1c2ccc(C(=O)NCCO)cc2[C@H](Nc2ccc(C#N)cc2)[C@@H](C)[C@@H]1C1CC1 [Example 492, (2S,3R,4R)-1-acetyl-4-((4-cyanophenyl)amino)-2-cyclopropyl-N-(2-hydroxyethyl)-3-methyl-1,2,3,4-tetrahydroquinoline-6-carboxamide] |
| 100 | CC(=O)N1c2ccc(C(=O)NC(CO)CO)cc2[C@H](Nc2ccc(C#N)cc2)[C@@H](C)[C@@H]1C1CC1 [Example 493, (2S,3R,4R)-1-acetyl-4-((4-cyanophenyl)amino)-2-cyclopropyl-N-(1,3-dihydroxypropan-2-yl)-3-methyl-1,2,3,4-tetrahydroquinoline-6-carboxamide] |
| 100 | CC(=O)N1c2ccc(F)cc2[C@H](Nc2ncccn2)[C@@H](C)[C@@H]1C [Example 501, 1-((2S,3R,4R)-6-fluoro-2,3-dimethyl-4-(pyrimidin-2-ylamino)-3,4-dihydroquinolin-1(2H)-yl)ethanone] |
| 1000 to 100000 | CC(=O)N1c2ccc(F)cc2[C@H](Nc2cccnc2C#N)[C@@H](C)[C@@H]1C1CC1 [Example 503, 3-(((2S,3R,4R)-1-acetyl-2-cyclopropyl-6-fluoro-3-methyl-1,2,3,4-tetrahydroquinolin-4-yl)amino)picolinonitrile] |
| 100 | CC(=O)N1c2ccc(F)cc2[C@H](Nc2ncccc2C#N)[C@@H](C)[C@@H]1C [Example 504, 2-(((2S,3R,4R)-1-acetyl-6-fluoro-2,3-dimethyl-1,2,3,4-tetrahydroquinolin-4-yl)amino)nicotinonitrile] |
| 100 | CNC(=O)c1ccc(N[C@H]2c3cc(F)ccc3N(C(C)=O)[C@@H](C)[C@@H]2C)cc1 [Example 506, 4-(((2S,3R,4R)-1-acetyl-6-fluoro-2,3-dimethyl-1,2,3,4-tetrahydroquinolin-4-yl)amino)-N-methylbenzamide] |
| 100 | COc1ncccc1N[C@H]1c2cc(F)ccc2N(C(C)=O)[C@@H](C)[C@@H]1C [Example 509, 1-((2S,3R,4R)-6-fluoro-4-((2-methoxypyridin-3-yl)amino)-2,3-dimethyl-3,4-dihydroquinolin-1(2H)-yl)ethanone] |
| 1000 to 100000 | CC(=O)N1c2ccc(F)cc2[C@H](Nc2ccnc(O)n2)[C@@H](C)[C@@H]1C [Example 517, 1-((2S,3R,4R)-6-fluoro-4-((2-hydroxypyrimidin-4-yl)amino)-2,3-dimethyl-3,4-dihydroquinolin-1(2H)-yl)ethanone] |
| 100 | CC(=O)N1c2ccc(F)cc2[C@H](Nc2cccnc2O)[C@@H](C)[C@@H]1C [Example 518, 1-((2S,3R,4R)-6-fluoro-4-((2-hydroxypyridin-3-yl)amino)-2,3-dimethyl-3,4-dihydroquinolin-1(2H)-yl)ethanone] |
| 1000 to 100000 | CC(=O)N1c2ccc(F)cc2[C@H](Nc2ccnc(O)n2)[C@@H](C)[C@@H]1C1CC1 [Example 519, 1-((2S,3R,4R)-2-cyclopropyl-6-fluoro-4-((2-hydroxypyrimidin-4-yl)amino)-3-methyl-3,4-dihydroquinolin-1(2H)-yl)ethanone] |
| 1000 to 100000 | CC(=O)N1c2ccc(F)cc2[C@H](Nc2ccc(C(N)=O)cn2)[C@@H](C)[C@@H]1C1CC1 [Example 522, 6-(((2S,3R,4R)-1-acetyl-2-cyclopropyl-6-fluoro-3-methyl-1,2,3,4-tetrahydroquinolin-4-yl)amino)nicotinamide] |
| 100 | CC(=O)N1c2ccc(F)cc2[C@H](Nc2ncccc2C(N)=O)[C@@H](C)[C@@H]1C1CC1 [Example 523, 2-(((2S,3R,4R)-1-acetyl-2-cyclopropyl-6-fluoro-3-methyl-1,2,3,4-tetrahydroquinolin-4-yl)amino)nicotinamide] |
| 100 | CC(=O)N1c2ccc(F)cc2[C@H](Nc2ncccc2C(N)=O)[C@@H](C)[C@@H]1C [Example 527, 2-(((2S,3R,4R)-1-acetyl-6-fluoro-2,3-dimethyl-1,2,3,4-tetrahydroquinolin-4-yl)amino)nicotinamide] |
